# Test results from patent publication US9499570B2, “Boron containing small molecules” (priority 2010, dated 2016).
# “Also recorded” adds a separate entry of the source.
# Tests used:
# Brugia malayi = Brugia malayi in vitro assay, adult female worms; settings: 50 uM
# Description: Adult female worms are shipped from TRS Labs Inc. (Nonglak Supakorndej, Lab Director, 295 Research Dr., Athens, Ga. 30605; 706-549-0764) via Fed Ex. Individual worms are shipped in 2 mls vials with RPMI on Mondays and arrive at the […] Center lab on Tuesday mornings. Individual worms are poured into each well (24-well tissue culture plates) to avoid handling worms since they are very delicate and easily broken. Transport media is removed and replaced with 0.5 mls of RPMI-1640 (25 mM HEPES, 2 g/L NaHCO3, Antibiotic/Antimycotic, 5% HI FBS). Worms are maintained in a 37° C. 5% CO2 incubator. Compounds are added directly to each duplicate well (5 ul of 5 mM for a final concentration of 50 uM). DMSO (5 ul) is used as a negative control and Ivermectin (Sigma) is used as a positive control at 100 uM/well and 20 uM/well. Adult filarial nematodes can shed/give birth to microfilarial worms (mf) during the course of the assay. Wells were reviewed for the presence of mf, and the viability of mf, by visual observation of the well on the last day of observation (Day 7). Plates are examined once a day for 4-7 days. […] If changes are observed, worms are more closely examined under a dissecting microscope.
# [1] = test system: Schistosoma mansoni schistosomula; assay: Schistosoma mansoni schistosomula phenotype screen in vitro; settings: Second Set, 5 uM, listed as 6-(1-Hydroxy-1,3-dihydro-benzo[c][1,2]oxaborol-5-yloxy)-2-(4-oxo-pentyloxy)-5-ch
# Source text: (§1) Puerto Rican isolates of S. mansoni using Biomphalaria glabrata snails and golden hamsters as intermediate and definitive hosts, respectively, were maintained and handled in the University of California-San Francisco Sandler Center for Tropical Medicine. Patent B. glabrata snails (6-8 weeks after exposure to 5-10 infectious miracidia) were induced to shed infective larvae (cercariae) under light stimulus into the surrounding water. Cercariae were washed in rounds of ice-cold water and concentrated through and over sieves of varying pore sizes. They were then mechanically sheared (separation of heads from tails) as described in Colley D G, et al. Exp Parasitol 1974, 35:44-51, in ice-cold Incomplete Medium 169 (as described in Basch P F. J Parasitol 1981, 67:179-185, minus FBS and antibiotics) by passing 15 times through a double headed 22-gauge syringe needle connected to two 10 mL syringes. The resulting cercarial heads (schistosomula) were separated from their tails by swirling in a petri dish. Concentrated schistosomula were added to a sterile 1.5 mL centrifuge tube and allowed to settle over ice. Schistosomula were transferred to a sterile environment and washed 4 times in Incomplete Medium 169 prior to plating.
# (§2) Two sets of screening were performed. In the first set, compounds were screened against schistosomula and observations were made at 24 hours, 2 days, 3 days, 4 days, and 6 days. In the second set, compounds were screened against schistosomula with observations at 24 hours, 2 days, 3 days, and 4 days and adult worms at 7 hours, 24 hours, 4 days, and 6 days.
# Plates contain 200 schistosomula/well in […] complete Basch medium and were maintained at 37° C. in a 5% CO2 atmosphere. All compounds were tested in duplicate with at least two experimental replicates. Compounds and control compounds were added to the plates using the Biomek FXp using 96-well disposable tips. Final concentration of DMSO in each well was 0.5%.
# (§3) A semi-quantitative and controlled nomenclature for phenotypes that can arise as a result of compound insult to both schistosomula and adults was utilized (Abdulla M H, et al., PLoS Negl Trop Dis 2009, 3:e478). Phenotypes were recorded by visual inspection and on a flexible time basis but at least at 24 h and 4 day time-points in the case of large scale screening. […] To help eliminate bias, two screen analysts scored phenotypes ‘blind’ both to knowledge of the contents of each screening plate and the phenotypes scored by his/her colleague. Upon completing their individual assessments, each analyst's ‘hit sheet’ was then compared to derive a ‘consensus hit sheet’. Discrepancies in analysts' hit sheets were re-evaluated under the microscope to eventually make a consensus hit call.
# (§4) Hyper-coiled and coiled represent a verbal description of the visual phenotype as compared to the DMSO control. The + and ++ and +++ means more of the phenotype which preceded it. The − means less of the phenotype which preceded it. Results
# [2] = test system: Schistosoma mansoni adult worms; assay: Schistosoma mansoni adult worm phenotype screen in vitro; settings: Second Set, 5 uM
# Source text: as §1, §2
# Given the delicacy and size (0.5-1.5 cm in length) of this stage all operations were performed manually by the Sandler Center. 24-well plates were set up with compound (final DMSO concentration=0.5%) containing approximately 5 pairs of worms (S. mansoni has separate sexes) in 2 mL complete Basch medium per well. Plates were maintained at 37° C. in a 5% CO2 atmosphere. All compounds were tested in duplicate with at least two experimental replicates.
# as §3, §4
smiles,measurement,setting,value
"CC(=O)CCCOc1nc(Oc2ccc3c(c2)COB3O)c(Cl)cc1C#N [D231, 5-Chloro-6-(1-hydroxy-1,3-dihydrobenzo[c][1,2]oxaborol-5-yloxy)-2-(4-oxopentyloxy)nicotinonitrile]",Presence and viability of microfilarial worms (mf) Day 7,Brugia malayi; trial one,no mf and obs
same,Worm activity / phenotype Day 1,Brugia malayi; trial one,hyper-; also recorded: coiled
same,Worm activity / phenotype Day 2,Brugia malayi; trial one,hyper-; also recorded: coiled
same,Worm activity / phenotype Day 7,Brugia malayi; trial one,"0, and coiled"
same,Presence and viability of microfilarial worms (mf) Day 7,Brugia malayi; trial two,no mf and obs
same,Worm activity / phenotype Day 1,Brugia malayi; trial two,hyper-; also recorded: coiled
same,Worm activity / phenotype Day 2,Brugia malayi; trial two,hyper-; also recorded: coiled
same,Worm activity / phenotype Day 7,Brugia malayi; trial two,"0, and coiled"
same,Schistosomula (juvenile infective form) worm screen phenotype 24 h,[1]; 24 h,"R, O++,; also recorded: some deg-m"
same,Schistosomula (juvenile infective form) worm screen phenotype 2 d,[1]; 2 d,"O++, and R−, and more and deg-M"
same,Schistosomula (juvenile infective form) worm screen phenotype 3 d,[1]; 3 d,"O++, R−,; also recorded: more deg-M"
same,Schistosomula (juvenile infective form) worm screen phenotype 4 d,[1]; 4 d,"O++, R−,; also recorded: more deg-M"
same,Adult worm screen phenotype 7 h,"[2]; 7 h, listed as 6-(1-Hydroxy-1,3-dihydro-benzo[c][1,2]oxaborol-5-yloxy)-2-(4-oxo-pentyloxy)-5-ch","O+++,; also recorded: Sex sep (Sex sep=worm pairs have separated); also recorded: (violent; also recorded: motion)"
same,Adult worm screen phenotype 24 h,"[2]; 24 h, listed as 6-(1-Hydroxy-1,3-dihydro-benzo[c][1,2]oxaborol-5-yloxy)-2-(4-oxo-pentyloxy)-5-ch","O+++, Sex; also recorded: sep (violent; also recorded: motion)"
same,Adult worm screen phenotype 4 d,"[2]; 4 d, listed as 6-(1-Hydroxy-1,3-dihydro-benzo[c][1,2]oxaborol-5-yloxy)-2-(4-oxo-pentyloxy)-5-ch","O++, sex; also recorded: sep on sides,; also recorded: males dark"
same,Adult worm screen phenotype 6 d*,[2]; 6 d,"Dark, S"
